We go through 9 substances from patent US20090186864A1, “RUTHENIUM (II) COMPOUNDS” (priority 2006, published 2009).

Assay [1] relates to A2780 ovarian cancer cell line. The assay can be described thus: Cytotoxicity against A2780 ovarian cancer cell line (Coulter counter cell count, Example 10). It is filed as cell-based, human. Conditions: 24 hours exposure, further 72 h growth, stock solutions in deionised water. The procedure: Some compounds were tested for cytotoxicity against the A2780 ovarian cancer cell line as follows.
(§1) The human ovarian cells were added at a density of 1×10^4 cells per well to 24-well tissue culture trays (Falcon Plastic, Becton Dickenson, Lincon Park, N.J., USA) and allowed to grow for 72 hours before addition of the Ru(II) arene complexes. Stock solutions of the ruthenium compounds were made up fresh in deionised water and sonicated to ensure complete dissolution. These stock solutions were diluted with media to give final concentrations ranging between 0.1 and 100 μM. All compounds were evaluated at each concentration in duplicate wells, and complete assays were repeated a minimum of three times. Cisplatin or carboplatin was employed as a positive and comparative control in each experiment. After 24 hours exposure the drug-containing medium was removed, the cells washed with phosphate buffered saline (PBS) and fresh medium was added. Cell number was assessed after a further 72 h growth using s Coulter counter (Coulter Electronics Ltd, Luton, UK) and the IC50 values (concentration of drug causing 50% growth inhibition) calculated by linear regression analysis comparing the inhibitory effects of the drugs against the growth of untreated cells.

The subject of a further assay is A2780 cancer cell line. The assay can be described thus: Inhibitory growth activity against A2780 cancer cell line (sulforhodamine B assay, Example 11). It is filed as cell-based, human. The note with it: 24 hours exposure, 96 hours recovery, 0.5% DMSO. The procedure: (§2) Other compounds were tested for inhibitory growth activity against the A2780 and A549 cancer cell lines as follows. Each drug was tested for activity at six different concentrations (100 μM, 50 μM, 10 μM, 5 μM, 1 μM and 0.1 μM) and each concentration was tested in triplicate, relative to a cisplatin control.
(§3) The A2780 cancer cell line was maintained by growing the cells in RPMI media supplemented with 5% fetal bovine serum, 1% penicillin/streptomycin and 2 mM L-glutamine. The cells were split when approximately 70-80% confluence were reached using 0.25% trypsin/EDTA. The cells were kept incubated at 37° C., 5% CO2, high humidity. The A549 cancer cell line was maintained by growing the cells in DMEM media supplemented with 10% fetal bovine serum, 1% penicillin/streptomycin and 2 mM L-glutamine. The cells were split when approximately 70-80% confluence were reached using 0.25% trypsin/EDTA. The cells were kept incubated at 37° C., 5% CO2, high humidity.
(§4) A2780 cancer cells were plated out at 5000 cells/well (±10%) on day one. A549 cancer cells were plated out at 2000 cells/well (±10%) on day two. On day three the test compound was dissolved in DMSO to give a stock solution of 20 mM and serial dilutions were carried out in DMSO to give concentrations of drug in DMSO of 10 mM, 2 mM, 1 mM, 0.2 mM and 0.02 mM. These were added to the wells to give the six testing concentrations and a final concentration of DMSO as 0.5% (v/v) with a total volume of drugs and media to be 200 μl. The cells were exposed to the drug for 24 hours then, after drug removal, fresh media was given and the cells were incubated for 96 hours recovery time. The remaining biomass was estimated by the sulforhodamine B assay. The cells were then fixed using 50 μl 50% (w/v) TCA and incubated at 4° C. for one hour. The biomass was stained with 100 μl 0.4% (w/v) sulforhodamine B in 1% acetic acid.
(§5) The dye was solubilised with Tris Buffer and the absorbance was read using a BMG Fluostar microplate reader at 595 nm. A baseline correction at 690 nm was subtracted from the values. The absorbance for 100% cell survival was based on the average absorbance for the 0.1 μM dosed triplicate for that drug. IC50 values were calculated using XL-Fit version 4.0.

The next assay concerns A549 cancer cell line. The experiment in a line: Inhibitory growth activity against A549 cancer cell line (sulforhodamine B assay, Example 11). It is filed as cell-based. Conditions: 24 hours exposure, 96 hours recovery, 0.5% DMSO. Here is the method: as §2, §3, §4, §5
Assay [2] relates to cisplatin resistant cell line (A2780^cis). The assay can be described thus: Cytotoxicity against cisplatin resistant cell line A2780cis (Example 10). It counts as cell-based, human. Here is the method:
as §1

On to “[(η-indan)Ru(2,9-Me2-phen-N,N)Cl]PF6 [Compound 3]”, for which, in assay [1], the half-maximal inhibitory concentration (IC50) is greater than 50 µM.
On to “[(η^6-DHA)Ru(bipydiol-N,N—H)Cl] [Compound 5]”, for which the concentration for half-maximal inhibition (IC50) turned out to be 16.7 µM in the assay with A2780 cancer cell line and 38.4 µM with A549 cancer cell line.
As for “[(η^6-THA)Ru(bipydiol-N,N—H)Cl] [Compound 4]”, the results for the half-inhibitory concentration (IC50) in the assay on A2780 cancer cell line and with A549 cancer cell line were 7.9 µM and 21 µM, respectively.
The matching figures for “[(η^6-THN)Ru(bipydiol-N,N—H)Cl] [Compound 6]”: 7.3 µM and 23.6 µM.
In the assay on A2780 cancer cell line, “[(η^6-biph)RuCl(bipy(OH)O^−)] [Compound 8]” gave a concentration for half-maximal inhibition (IC50) of 40 µM.
In turn, “[(η^6-bz)RuCl(bipy(OH)O^−)] [Compound 7]” showed a concentration for half-maximal inhibition (IC50) with A2780 cancer cell line of 65 µM.
Consider “[(η^6-indan)Ru(phenanthroline-N,N)Cl]PF6 [Compound 2]”, for which the IC50 in assay [1] was 52 µM.
With “[(η^6-indan)RuCl(bipydiol-N,N)Cl] [Compound 1]”, the concentration for half-maximal inhibition (IC50) is 3 µM in assay [1], 2.1 µM in assay [2] (A2780cis cisplatin resistant cell line), 17.6 µM in the assay on A2780 cancer cell line and 39 µM in the assay with A549 cancer cell line. In addition, the fold resistance in assay [2] (A2780cis versus A2780) turned out to be 0.7 fold.
With “[(η^6-p-terp)RuCl(bipy(OH)O—)] [Compound 9]”, the IC50 in the assay on A2780 cancer cell line turned out to be 21 µM; in the assay with A549 cancer cell line, 62 µM.
